Data published in ChEMBL document CHEMBL5252592, “Design, synthesis, and biological activity evaluation of novel tubulin polymerization inhibitors based on pyrimidine ring skeletons” (Bioorg Med Chem Lett, 2023).
Calls of active or inactive are those of the source. The calls are words filed in the database; no cut-off is given here.

How the values were obtained:
HepG2 [1] = experiment: Induction of cell cycle arrest in human HepG2 cells assessed as increase in G2 phase cells at 100 nM incubated for 24 hrs by PI staining based flow cytometric analysis (reference value: 13.40%); format: functional
HepG2 [2] = experiment: Induction of cell cycle arrest in human HepG2 cells assessed as decrease in S phase cells at 100 nM incubated for 24 hrs by PI staining based flow cytometric analysis (reference value: 12.75%); format: functional; parameters: scale not given: the % may be the effect or the level left
HepG2 [3] = experiment: Induction of apoptosis in human HepG2 cells assessed as late apoptotic cells at 100 nM incubated for 48 hrs by AnnexinV-FITC/PI staining based flow cytometric analysis (reference value: 3.33%); format: functional
Tubulin (Homo sapiens) [4] = molecular target: T1, Tubulin (Homo sapiens) (UniProt P68371+Q9H4B7+P0DPH7+P68366+Q13509+Q71U36+P04350+Q3ZCM7+P07437+P68363+Q9BQE3+Q6PEY2+Q13885+Q9BVA1+Q9BUF5); experiment: Disruption of microtubule organization in human HepG2 cells assessed as round or polygonal shaped cells at 50 to 200 nM by immunofluorescence staining based laser confocal microscopic analysis; format: cell-based; conditions: dose 50-200 nM
HepG2 [5] = experiment: Induction of apoptosis in human HepG2 cells assessed as viable cells at 200 nM incubated for 48 hrs by AnnexinV-FITC/PI staining based flow cytometric analysis (reference value: 92.0%); format: functional; conditions: read-out: Activity
HepG2 [6] = experiment: Induction of apoptosis in human HepG2 cells assessed as total apoptotic cells at 200 nM incubated for 48 hrs by AnnexinV-FITC/PI staining based flow cytometric analysis (reference value: 5.16%); format: functional
HepG2 [7] = experiment: Induction of apoptosis in human HepG2 cells assessed as necrotic cells at 100 nM incubated for 48 hrs by AnnexinV-FITC/PI staining based flow cytometric analysis (reference value: 2.82%); format: functional
HepG2 [8] = experiment: Antiinvasive activity in human HepG2 cells assessed as decrease in cells invading inferior chamber by transwell assay; format: functional, cell-based; conditions: dose 50-200 nM
HepG2 [9] = experiment: Induction of cell cycle arrest in human HepG2 cells assessed as increase in G2 phase cells at 50 nM incubated for 24 hrs by PI staining based flow cytometric analysis (reference value: 13.40%); format: functional
HepG2 [10] = experiment: Induction of cell cycle arrest in human HepG2 cells assessed as decrease in S phase cells at 50 nM incubated for 24 hrs by PI staining based flow cytometric analysis (reference value: 12.75%); format: functional; parameters: scale not given: the % may be the effect or the level left
HepG2 [11] = experiment: Induction of cell cycle arrest in human HepG2 cells assessed as decrease in G1 phase cells at 50 nM incubated for 24 hrs by PI staining based flow cytometric analysis (reference value: 73.85%); format: functional; parameters: scale not given: the % may be the effect or the level left
HepG2 [12] = experiment: Induction of G2/M phase cell cycle arrest in human HepG2 cells assessed as decrease in cyclinB1 protein expression by Western blot analysis; format: functional, cell-based; conditions: dose 50-200 nM
HepG2 [13] = experiment: Induction of cell cycle arrest in human HepG2 cells assessed as increase in G2 phase cells at 200 nM incubated for 24 hrs by PI staining based flow cytometric analysis (reference value: 13.40%); format: functional
HepG2 [14] = experiment: Induction of apoptosis in human HepG2 cells assessed as total apoptotic cells at 100 nM incubated for 48 hrs by AnnexinV-FITC/PI staining based flow cytometric analysis (reference value: 5.16%); format: functional
HepG2 [15] = experiment: Induction of apoptosis in human HepG2 cells assessed as early apoptotic cells at 200 nM incubated for 48 hrs by AnnexinV-FITC/PI staining based flow cytometric analysis (reference value: 1.83%); format: functional
HepG2 [16] = experiment: Induction of apoptosis in human HepG2 cells assessed as necrotic cells at 50 nM incubated for 48 hrs by AnnexinV-FITC/PI staining based flow cytometric analysis (reference value: 2.82%); format: functional
HepG2 [17] = experiment: Induction of apoptosis in human HepG2 cells assessed as late apoptotic cells at 200 nM incubated for 48 hrs by AnnexinV-FITC/PI staining based flow cytometric analysis (reference value: 3.33%); format: functional
HepG2 [18] = experiment: Induction of cell cycle arrest in human HepG2 cells assessed as decrease in S phase cells at 200 nM incubated for 24 hrs by PI staining based flow cytometric analysis (reference value: 12.75%); format: functional; parameters: scale not given: the % may be the effect or the level left
HepG2 [19] = experiment: Induction of apoptosis in human HepG2 cells assessed as early apoptotic cells at 100 nM incubated for 48 hrs by AnnexinV-FITC/PI staining based flow cytometric analysis (reference value: 1.83%); format: functional
U-937 = experiment: Antiproliferative activity against human U-937 cells assessed as inhibition of cell growth; format: functional, cell-based
HepG2 [20] = experiment: Antiproliferative activity against human HepG2 cells assessed as inhibition of cell growth; format: functional, cell-based
Tubulin (Homo sapiens) [21] = molecular target: T1, Tubulin (Homo sapiens); experiment: Inhibition of tubulin polymerization (unknown origin) assessed as decrease in fluorescence intensity at 2 uM; format: protein-complex assay; conditions: time 1000-2000 min, TDE = time-dependent effect
HepG2 [22] = experiment: Induction of apoptosis in human HepG2 cells assessed as viable cells at 50 nM incubated for 48 hrs by AnnexinV-FITC/PI staining based flow cytometric analysis (reference value: 92.0%); format: functional; conditions: read-out: Activity
Tubulin (Homo sapiens) [23] = molecular target: T1, Tubulin (Homo sapiens); experiment: Disruption of microtubule organization in human HepG2 cells assessed as diffused intracellular microtubules at 50 to 200 nM by immunofluorescence staining based laser confocal microscopic analysis; format: cell-based; conditions: dose 50-200 nM
Tubulin (Homo sapiens) [24] = molecular target: T1, Tubulin (Homo sapiens); experiment: Disruption of microtubule organization in human HepG2 cells assessed as cell shrinkage at 50 to 200 nM by immunofluorescence staining based laser confocal microscopic analysis; conditions: dose 50-200 nM
HepG2 [25] = experiment: Induction of apoptosis in human HepG2 cells assessed as late apoptotic cells at 50 nM incubated for 48 hrs by AnnexinV-FITC/PI staining based flow cytometric analysis (reference value: 3.33%); format: functional
HepG2 [26] = experiment: Induction of cell cycle arrest in human HepG2 cells assessed as decrease in G1 phase cells at 200 nM incubated for 24 hrs by PI staining based flow cytometric analysis (reference value: 73.85%); format: functional; parameters: scale not given: the % may be the effect or the level left
HepG2 [27] = experiment: Induction of G2/M phase cell cycle arrest in human HepG2 cells assessed as increase in P21 protein expression by Western blot analysis; format: functional, cell-based; conditions: dose 50-200 nM
HepG2 [28] = experiment: Induction of apoptosis in human HepG2 cells assessed as early apoptotic cells at 50 nM incubated for 48 hrs by AnnexinV-FITC/PI staining based flow cytometric analysis (reference value: 1.83%); format: functional
Y79 = experiment: Antiproliferative activity against human Y79 cells assessed as inhibition of cell growth; format: functional, cell-based
HepG2 [29] = experiment: Induction of apoptosis in human HepG2 cells assessed as necrotic cells at 200 nM incubated for 48 hrs by AnnexinV-FITC/PI staining based flow cytometric analysis (reference value: 2.82%); format: functional
HepG2 [30] = experiment: Induction of apoptosis in human HepG2 cells assessed as total apoptotic cells at 50 nM incubated for 48 hrs by AnnexinV-FITC/PI staining based flow cytometric analysis (reference value: 5.16%); format: functional
HepG2 [31] = experiment: Induction of apoptosis in human HepG2 cells assessed as viable cells at 100 nM incubated for 48 hrs by AnnexinV-FITC/PI staining based flow cytometric analysis (reference value: 92.0%); format: functional; conditions: read-out: Activity
A549 = experiment: Antiproliferative activity against human A549 cells assessed as inhibition of cell growth; format: functional, cell-based
HepG2 [32] = experiment: Antimigratory activity in human HepG2 cells assessed as reduction in wound closure by scratch assay; format: functional, cell-based; conditions: dose 50-200 nM
HepG2 [33] = experiment: Induction of cell cycle arrest in human HepG2 cells assessed as decrease in G1 phase cells at 100 nM incubated for 24 hrs by PI staining based flow cytometric analysis (reference value: 73.85%); format: functional; parameters: scale not given: the % may be the effect or the level left

Compound: COc1cc(Nc2nccc(-c3ccc4c(c3)OCCO4)n2)cc(OC)c1OC
- Activity (HepG2 [1]): 27.53%
- Activity (HepG2 [2]): 6.95%
- Activity (HepG2 [3]): 23.4%
- Activity (Tubulin (Homo sapiens) [4]): Active
- viability at 0.2 µM (HepG2 [5]): 63.3%
- Activity (HepG2 [6]): 43.6%
- Activity (HepG2 [7]): 0.82%
- Activity (HepG2 [8]): Dose-Dependent Effect
- Activity (HepG2 [9]): 26.08%
- Activity (HepG2 [10]): 4.85%
- Activity (HepG2 [11]): 69.07%
- Activity (HepG2 [12]): Dose-Dependent Effect
- Activity (HepG2 [13]): 35.99%
- Activity (HepG2 [14]): 41.3%
- Activity (HepG2 [15]): 10.9%
- Activity (HepG2 [16]): 0.12%
- Activity (HepG2 [17]): 33.7%
- Activity (HepG2 [18]): 0.88%
- Activity (HepG2 [19]): 17.9%
- IC50 (U-937): 70 nM
- IC50 (HepG2 [20]): 110 nM
- inhibition (Tubulin (Homo sapiens) [21]): Tde
- viability at 0.05 µM (HepG2 [22]): 61.5%
- Activity (Tubulin (Homo sapiens) [23]): Active
- Activity (Tubulin (Homo sapiens) [24]): Active
- Activity (HepG2 [25]): 16.9%
- Activity (HepG2 [26]): 63.13%
- Activity (HepG2 [27]): Dose-Dependent Effect
- Activity (HepG2 [28]): 21.5%
- IC50 (Y79): 100 nM
- Activity (HepG2 [29]): 2.13%
- Activity (HepG2 [30]): 38.4%
- viability at 0.1 µM (HepG2 [31]): 57.9%
- IC50 (A549): 800 nM
- Activity (HepG2 [32]): Dose-Dependent Effect
- Activity (HepG2 [33]): 65.52%
